Assay results as given in patent US10597398B2, “Suppression and regeneration promoting effect of low molecular weight compound on cancer and fibrosis” (NATIONAL UNIVERSITY CORPORATION TOTTORI UNIVERSITY, priority 2015, dated 2020).

What was measured:
Wnt/β-catenin signaling = assay: Inhibitory effect on Wnt/β-catenin signaling in liver cancer cells (HuH7-TCF4 luciferase); assay type: cell-based, human; conditions: concentration equal to or lower than that of IC-2
How it was run: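 HuH-7 cells stably carrying a 3×TCF4-motif firefly luciferase reporter, treated 48 h at 37 °C with compounds at concentrations reducing HuH-7 growth to about 50% or less (n=3). Firefly luciferase luminescence read from lysates; 0.1% DMSO solvent control, 0.5 μM 5-FU control; Student's t-test.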

[1] = tested on: DLD-1 cells (colon cancer cells); assay: Growth of colon cancer cells (Cell Counting Kit-8); assay type: cell-based; conditions: 10 or 50 μM, 48 h
Method: DLD-1 cells (colon cancer cells) were cultured on 10-cm cell culture dishes (TPP Techno Plastic Products AG, Trasadingen, Switzerland) by using DMEM under conditions at 5% CO2, 37° C., and 100% humidity. For passage, 70 to 90% confluent cells were washed with PBS(−), and 300 μL of 0.25% Trypsin/1 mM EDTA per 2 mL of PBS(−) was added thereto. The cells were incubated at 37° C. for 5 min and were then detached. After that, 5 mL of DMEM was used to collect the cells. The cells collected were centrifuged at 1000 rpm for 3 min to remove a supernatant. The cells were then suspended in DMEM and were split at a 1:4 ratio.
DLD-1 cells were seeded at 5×10^5 cells/well of a 96-well plate (TPP). After 24 h, the cells were treated with 0, 10, or 50 μM of IC-2. Next, 48 h after the treatment, 100 μL of 10% Cell Counting Kit-8 (DOJINDO LABORATORIES, Kumamoto) was added. The mixture was incubated at 37° C. and its absorbance (at a measurement wavelength of 450 nm/control wavelength of 600 nm) was measured by using a Sunrise Rainbow RC (Tecan Group Ltd., Mannedorf, Switzerland).

CD44high DLD-1 cells = assay: CD44high cells in DLD-1 cells (FCM analysis); assay type: cell-based, human; conditions: 48 h, 50 μM IC-2, 0.5 or 5 μM 5-FU, compared with control
Method: In addition, DLD-1 cells were seeded at 1×10^6 cells/10-cm cell culture dish. After 24 h, the cells were treated with 0.5 or 5 μM of 5-FU or 50 μM of IC-2. At additional 48 h, the cells were harvested. As a primary antibody, used was a mouse anti-human CD44 antibody (Abcam Ltd., Cambridge, UK). Then, Alexa Fluor 488-labeled goat anti-mouse IgG (H+L) (Life Technologies Corp., Carlsbad, Calif.) was used. After that, a MoFlo XDP (Beckman Coulter Inc., Fullerton, Calif.) was used for analysis.

[2] = Liver cancer model mouse, body weight; assay type: in vivo, mice; conditions: 30 mg/kg 5-FU or 50 mg/kg IC-2 intraperitoneally every three days
Method: (§1) CD44-positive HuH-7 cells were subcutaneously transplanted in mice. Next, the engrafted mice were divided into 3 groups (DMSO group: 5 mice; 5-FU group: 4 mice; and IC-2 group: 4 mice). Then, DMSO was added to prepare 30 mg/kg of 5-FU and 50 mg/kg of IC-2 such that each liquid volume was 100 μL; and 100% DMSO, a solvent for each drug, was used as a control sample. Subsequently, each drug was dosed intraperitoneally every three days. The body weight of each mouse and the long and short diameters of a tumor were measured every three days. The tumor volume was calculated by using the following equation: Tumor volume=Long diameter×(Short diameter)^2×0.5. The volume at Day 0 was used to normalize each tumor volume, and then a graph was created. To fully evaluate a 5-FU effect, the 5-FU dose was set to an amount 2 times the regular amount 15 mg/kg used in research articles. The concentration of IC-2 corresponding to a concentration at which Wnt/β-catenin signaling was inhibited in vitro was calculated. Then, the concentration was doubled to set an IC-2 dose.

[3] = tested on: CD44-positive HuH-7 cells; assay: Liver cancer model mouse, tumor volume; assay type: in vivo, mice; conditions: 50 mg/kg IC-2 vs 30 mg/kg 5-FU, intraperitoneally every three days
Method: as §1

SMILES | inhibitory effect on Wnt/β-catenin signaling pathway in liver cancer cells compared with IC-2 (Wnt/β-catenin signaling) | growth inhibitory effect on colon cancer cells [1] | percentage of CD44high cells (CD44high DLD-1 cells) | body weight [2] | anti-malignant tumor therapeutic effect (tumor volume) [3]
COc1ccc(COc2ccc(CNC(=O)N3CCC(=O)N4C(Cc5ccccc5)C(=O)N(Cc5cccc6ccccc56)CC34)cc2)cc1 (centres unmarked) [IC-2-OPMB] | more potent inhibitory effect |  |  |  | 
O=C1C(Cc2ccccc2)N2C(=O)CCN(C(=O)NCc3ccccc3)C2CN1Cc1cccc2ccccc12 (centres unmarked) [IC-2] |  | elicited a growth inhibitory effect | significantly reduced the percentage of CD44^high cells | no change in the body weight | more remarkable anti-malignant tumor therapeutic effect than 5-FU
